The record followed here is ChEMBL document CHEMBL1136624, “Synthesis and anticancer effect of chrysin derivatives” (Bioorg Med Chem Lett, 2003).

Structures are written as SMILES.

One test concerns HT-29. In words: In vitro inhibitory concentration required against human colorectal adenocarcinoma HT-29 cell line. It is filed as functional, cell-based.
Another test has as its system SGC-7901. In words: In vitro inhibitory concentration required against human gastric adenocarcinoma SGC-7901 cell line. The format is functional, cell-based.

Turning to `COc1cc(O)c2c(=O)cc(-c3ccccc3)oc2c1Br`, the IC50 in the test with HT-29 came out at 1900 nM; with SGC-7901, 2500 nM.
For `COc1cc(OC)c2c(=O)cc(-c3ccccc3)oc2c1C(F)(F)F`, in that order: 2300 nM and 5900 nM.
Taken in the same sequence, the figures for `CC(=O)Oc1c(I)c(O)c2c(=O)cc(-c3ccccc3)oc2c1I` were 3000 nM and 4200 nM.
As for `CC(=O)Oc1c(C(F)(F)F)c(O)c2c(=O)cc(-c3ccccc3)oc2c1C(F)(F)F`, the IC50 in the test with HT-29 was 2900 nM. This lies in the single-digit micromolar range.
As to `O=c1cc(-c2ccccc2)oc2c(I)c(O)c(I)c(O)c12`, the IC50 in the test with HT-29 is 4400 nM; with SGC-7901, 2900 nM.
Taken in the same sequence, the figures for `COc1cc(OC)c2c(=O)cc(-c3ccccc3)oc2c1I` were 2600 nM and 2200 nM.
For `O=c1cc(-c2ccccc2)oc2c([N+](=O)[O-])c(O)cc(O)c12`, in that order: 2300 nM and 2800 nM.
For `CC(=O)Oc1cc(O)c2c(=O)cc(-c3ccccc3)oc2c1`, in that order: 3800 nM and 3600 nM.
Consider `COc1c([N+](=O)[O-])c(O)c2c(=O)cc(-c3ccccc3)oc2c1I`, for which the IC50 is 2300 nM with HT-29 and 6400 nM in the test with SGC-7901.
Taken in the same sequence, the figures for `O=c1cc(-c2ccccc2)oc2c(Br)c(O)c(Br)c(O)c12` were 4000 nM and 5100 nM.
Consider `CC(=O)Oc1cc(OC(C)=O)c2c(=O)cc(-c3ccccc3)oc2c1` [CHRYSIN DIACETATE], for which the results for the IC50 in the test with HT-29 and in the test on SGC-7901 were 2600 nM and 4500 nM, respectively.
Taken in the same sequence, the figures for `COc1cc(OC)c2c(=O)cc(-c3ccccc3)oc2c1` [CHRYSIN DIMETHYL ETHER] were 2000 nM and 3700 nM.
For `O=c1cc(-c2ccccc2)oc2cc(O)cc(O)c12` [CHRYSIN], in that order: 3100 nM and 5800 nM.
